Source: patent US20260209180A1, “PROTEASE INHIBITORS FOR TREATING OR PREVENTING CORONAVIRUS INFECTION” (Merck Sharp & Dohme LLC, priority 2023, published 2026)

Each molecule was assayed against SARS2 coronavirus 3CL protease (Severe acute respiratory syndrome coronavirus 2, UniProt P0DTD1) (assay: SARS2 Coronavirus 3CL Protease Assay (FRET)). Settings: 5 nM protease pre-incubated with compound 30 minutes; 15 uM peptide substrate; 4 h room temperature; read-out: FRET Potency (nM); IC50 values in the SARS2 3CLPro FRET assay.
Assay type: biochemical
Description: The enzymatic activity of SARS2 coronavirus 3CL protease was determined in a FRET (fluorescence resonance energy transfer)-based assay measuring the cleavage of a peptide substrate by recombinantly expressed and purified enzyme. Cleavage of the peptide SEQ ID NO: 1 (CPC Scientific) by SARS2 3CL protease was measured in reaction buffer (50 mM Hepes pH 7.5, 0.01% Triton X-100, 0.01% BSA, 2 mM DTT). […] Room temperature reactions (4 h) were quenched by addition of a high dose of inhibitor and read on an appropriate plate reader (excitation wavelength=495 nm, emission wavelength=520 nm). Data were analyzed by a standard 4 parameter fit to determine IC50 values.
With CNC(=O)C(=O)[C@H](CCC(C)(F)F)NC(=O)c1cc(Cl)ccc1NC(=O)C1CC12CCOCC2 (stereo partly drawn) [Example 26, N-[4-chloro-2-[[(1S)-4,4-difluoro-1-[2-(methylamino)-2-oxo-acetyl]pentyl]carbamoyl]phenyl]-6-oxaspiro[2.5]octane-2-carboxamide] the IC50 was 15.1 nM. Work on CNC(=O)C(=O)[C@H](CCC(C)(F)F)NC(=O)c1cc(Cl)ccc1NC(=O)c1cccc(C(F)(F)F)n1 [Example 17, N-[4-chloro-2-[[(1S)-4,4-difluoro-1-[2-(methylamino)-2-oxo-acetyl]pentyl]carbamoyl]phenyl]-6-(trifluoromethyl)pyridine-2-carboxamide] yielded an IC50 of 8.7 nM. CNC(=O)C(=O)[C@H](CCC(C)(F)F)NC(=O)c1cc(Cl)cnc1NC(=O)c1cccc(C(F)(F)F)c1 [Example 21, 5-chloro-N-[(1S)-4,4-difluoro-1-[2-(methylamino)-2-oxo-acetyl]pentyl]-2-[[3-(trifluoromethyl)benzoyl]amino]pyridine-3-carboxamide] gave an IC50 of 11.7 nM. CC(F)(F)CC[C@H](NC(=O)c1cc(F)cnc1NC(=O)c1cccc(F)c1)C(=O)C(=O)NC1CC1 [Example 40, N-[(1S)-1-[2-(cyclopropylamino)-2-oxo-acetyl]-4,4-difluoro-pentyl]-5-fluoro-2-[(3-fluorobenzoyl)amino]pyridine-3-carboxamide] showed an IC50 of 41.6 nM. For CC(F)(F)CC[C@H](NC(=O)c1cc(Cl)ccc1NC(=O)CCC(F)(F)F)C(=O)C(N)=O [Example 53, 5-chloro-N-[(1S)-4,4-difluoro-1-oxamoyl-pentyl]-2-(4,4,4-trifluorobutanoylamino) benzamide], the IC50 was 97.5 nM. CNC(=O)C(=O)[C@H](CCC(C)(F)F)NC(=O)c1cc(F)cnc1NC(=O)C1CC(F)(F)C1 [Example 28, 2-[(3,3-difluorocyclobutanecarbonyl)amino]-N-[(1S)-4,4-difluoro-1-[2-(methylamino)-2-oxo-acetyl]pentyl]-5-fluoro-pyridine-3-carboxamide] showed an IC50 of 19.8 nM. With CNC(=O)C(=O)[C@H](CCC(C)(F)F)NC(=O)c1cc(C#N)ccc1NC(=O)C12CC(C(F)(F)F)(C1)C2 [Example 37, N-[4-cyano-2-[[(1S)-4,4-difluoro-1-[2-(methylamino)-2-oxo-acetyl]pentyl]carbamoyl]phenyl]-3-(trifluoromethyl)bicyclo[1.1.1] pentane-1-carboxamide] the IC50 was 31.1 nM. With CNC(=O)C(=O)[C@H](CCC(C)(F)F)NC(=O)c1cc(C#N)ccc1NC(=O)c1cccc(F)c1 [Example 41, 5-cyano-N-[(1S)-4,4-difluoro-1-[2-(methylamino)-2-oxo-acetyl]pentyl]-2-[(3-fluorobenzoyl)amino]benzamide] the IC50 was 45.3 nM. Molecule CNC(=O)C(=O)[C@H](CCC(C)(F)F)NC(=O)c1cc(Cl)ccc1NC(=O)C1CC1C(F)(F)F (stereo partly drawn) [Example 47, 5-chloro-N-[(1S)-4,4-difluoro-1-[2-(methylamino)-2-oxo-acetyl]pentyl]-2-[[2-(trifluoromethyl)cyclopropane-carbonyl]amino]benzamide] has an IC50 of 20.5 nM. For CNC(=O)C(=O)[C@H](CCC(C)F)NC(=O)c1cc(Cl)ccc1NC(=O)OC (single isomer, unassigned) [Example 6B], the IC50 was 154 nM. CNC(=O)C(=O)[C@H](CCC(C)(F)F)NC(=O)c1cc(Cl)ccc1NC(=O)[C@@H]1CCc2nccc(=O)n21 [Example 25, (6S)-N-[4-chloro-2-[[(1S)-4,4-difluoro-1-[2-(methylamino)-2-oxo-acetyl]pentyl]carbamoyl]phenyl]-4-oxo-7,8-dihydro-6H-pyrrolo[1,2-a]pyrimidine-6-carboxamide] was tested, and the IC50 was 14.8 nM. In the case of CNC(=O)C(=O)[C@H](CCC(C)(F)F)NC(=O)c1cc(F)cnc1NC(=O)c1cccc(F)c1 [Example 34, N-[(1S)-4,4-difluoro-1-[2-(methylamino)-2-oxo-acetyl]pentyl]-5-fluoro-2-[(3-fluorobenzoyl)amino]pyridine-3-carboxamide], the IC50 was 23.8 nM. With Cc1cnc(NC(=O)c2cccc(C(F)(F)F)c2)c(C(=O)N[C@@H](CCC(C)(F)F)C(=O)C(=O)NC2CC2)c1 [Example 45, N-[(1S)-1-[2-(cyclopropylamino)-2-oxo-acetyl]-4,4-difluoro-pentyl]-5-methyl-2-[[3-(trifluoromethyl)benzoyl]amino]pyridine-3-carboxamide] the IC50 was 76.2 nM. With CC(F)(F)CC[C@H](NC(=O)c1cc(Cl)ccc1NC(=O)c1cccc(C(F)(F)F)c1)C(=O)C(=O)NC1CC1 [Example 12, 5-chloro-N-[(1S)-1-[2-(cyclopropylamino)-2-oxo-acetyl]-4.4-difluoro-pentyl]-2-[[3-(trifluoromethyl)benzoyl]amino]benzamide] the IC50 was 7.9 nM. CNC(=O)C(=O)[C@H](CCC(C)F)NC(=O)c1cc(Cl)ccc1NC(=O)OC (single isomer, unassigned) [Example 6A] showed an IC50 of 25.8 nM. In the case of CNC(=O)C(=O)[C@H](CCC(C)(F)F)NC(=O)c1cc(Cl)ccc1NC(=O)c1ccnc(C(F)(F)F)c1 [Example 1, (S)—N-(4-chloro-2-((6,6-difluoro-1-(methylamino)-1,2-dioxoheptan-3-yl)carbamoyl)phenyl)-2-(trifluoromethyl)isonicotinamide], the IC50 was 8.1 nM. CC(F)(F)CC[C@H](NC(=O)c1cc(F)cnc1NC(=O)C(C)(C)C)C(=O)C(=O)NC1CC1 [Example 46, N-[(1S)-1-[2-(cyclopropylamino)-2-oxo-acetyl]-4,4-difluoro-pentyl]-2-(2,2-dimethylpropanoylamino)-5-fluoro-pyridine-3-carboxamide] gave an IC50 of 94.8 nM. In the case of CNC(=O)C(=O)[C@H](CCC(C)(F)F)NC(=O)c1cc(Cl)ccc1NC(=O)C1CC12CC2 (single isomer, unassigned) [Example 19], the IC50 was 10.5 nM. With CNC(=O)C(=O)[C@H](CCC(C)(F)F)NC(=O)c1cc(Cl)cnc1NC(=O)C1CC(F)(F)C1 [Example 54, 5-chloro-2-[(3,3-difluorocyclobutanecarbonyl)amino]-N-[(1S)-4,4-difluoro-1-[2-(methylamino)-2-oxo-acetyl]pentyl]pyridine-3-carboxamide] the IC50 was 7.5 nM. For CNC(=O)C(=O)[C@H](CCC(C)(F)F)NC(=O)c1cc(Cl)ccc1NC(=O)CCC(F)(F)F [Example 14, 5-chloro-N-[(1S)-4,4-difluoro-1-[2-(methylamino)-2-oxo-acetyl]pentyl]-2-(4,4,4-trifluorobutanoylamino) benzamide], the IC50 was 8.2 nM. CNC(=O)C(=O)[C@H](CCC(C)(F)F)NC(=O)c1cc(Cl)cnc1NC(=O)C12CC(F)(C1)C2 [Example 38, 5-chloro-N-[(1S)-4,4-difluoro-1-[2-(methylamino)-2-oxo-acetyl]pentyl]-2-[(3-fluorobicyclo[1.1.1]pentane-1-carbonyl)amino]pyridine-3-carboxamide] gave an IC50 of 40.4 nM. For CNC(=O)C(=O)[C@H](CCC(C)(F)F)NC(=O)c1cc(Cl)c(F)cc1NC(=O)CCC(F)(F)F [Example 4, (S)-5-chloro-N-(6,6-difluoro-1-(methylamino)-1,2-dioxoheptan-3-yl)-4-fluoro-2-(4,4,4-trifluorobutanamido)benzamide], the IC50 was 9.9 nM. Molecule CNC(=O)C(=O)[C@H](CCC(C)(F)F)NC(=O)c1cc(Cl)ccc1NC(=O)C(C)c1cscn1 (stereo partly drawn) [Example 8, 5-chloro-N-[(1S)-4,4-difluoro-1-[2-(methylamino)-2-oxo-acetyl]pentyl]-2-(2-thiazol-4-ylpropanoylamino)benzamide] has an IC50 of 6.6 nM. In the case of CNC(=O)C(=O)[C@H](CCC(C)F)NC(=O)c1cc(Cl)ccc1NC(=O)OC (single isomer, unassigned) [Example 6D], the IC50 was 702 nM. CNC(=O)C(=O)[C@H](CCC(C)(F)F)NC(=O)c1cc(Cl)ccc1NC(=O)c1cncc(C#N)c1 [Example 51, N-[4-chloro-2-[[(1S)-4,4-difluoro-1-[2-(methylamino)-2-oxo-acetyl]pentyl]carbamoyl]phenyl]-5-cyano-pyridine-3-carboxamide] showed an IC50 of 15.1 nM. CNC(=O)C(=O)[C@H](CCC(C)(F)F)NC(=O)c1cc(Cl)ccc1NC(=O)N(C)CC1CCC(F)(F)CC1 [Example 57, (S)-5-chloro-N-(6,6-difluoro-1-(methylamino)-1,2-dioxoheptan-3-yl)-2-(3-((4,4-difluorocyclohexyl)methyl)-3-methylureido)benzamide] was tested, and the IC50 was 6 nM. For CC(F)(F)CC[C@H](NC(=O)c1cc(Cl)cnc1NC(=O)c1cccc(F)c1)C(=O)C(=O)NC1CC1 [Example 29, 5-chloro-N-[(1S)-1-[2-(cyclopropylamino)-2-oxo-acetyl]-4,4-difluoro-pentyl]-2-[(3-fluorobenzoyl)amino]pyridine-3-carboxamide], the IC50 was 20.4 nM. In the case of CNC(=O)C(=O)[C@H](CCC(C)(F)F)NC(=O)c1cc(Cl)cnc1NC(=O)C1(C(F)(F)F)CC1 [Example 36, 5-chloro-N-[(1S)-4,4-difluoro-1-[2-(methylamino)-2-oxo-acetyl]pentyl]-2-[[1-(trifluoromethyl)cyclopropane-carbonyl]amino]pyridine-3-carboxamide], the IC50 was 24.4 nM. For CC(F)(F)CC[C@H](NC(=O)c1cc(C(F)(F)F)cnc1NC(=O)c1cccc(C(F)(F)F)c1)C(=O)C(=O)NC1CC1 [Example 39, N-[(1S)-1-[2-(cyclopropylamino)-2-oxo-acetyl]-4,4-difluoro-pentyl]-5-(trifluoromethyl)-2-[[3-(trifluoromethyl)benzoyl]amino]pyridine-3-carboxamide], the IC50 was 40.9 nM. CNC(=O)C(=O)[C@H](CCC(C)(F)F)NC(=O)c1cc(Cl)ccc1NC(=O)OC1CC1 [Example 59, cyclopropyl N-[4-chloro-2-[[(1S)-4,4-difluoro-1-[2-(mcthylamino)-2-oxo-acetyl]pentyl]carbamoyl]phenyl]carbamate] was tested, and the IC50 was 13.1 nM.
